This note sets out measurements from patent US10988459B2 (priority 2015, dated 2021).

The target of this test is human RIP1 kinase domain (2-375) (Homo sapiens (Human), UniProt Q13546). In words: biochemical. The format is biochemical. As to conditions: 50 uM ATP. The method in brief: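 Ki^app comes from Morrison tight-binding fits of fractional activity versus compound concentration. Activity was read as ADP production, via tracer displacement lowering fluorescence polarization (633 nm laser). Conditions: 2 h, 50 nM insect-cell-expressed enzyme, 50 uM ATP, 30 mM MgCl2, 1 mM DTT, 0.5% DMSO, pH 7.5 Hepes.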
Chain of human RIP1 kinase domain (2-375) (Q13546 2-375): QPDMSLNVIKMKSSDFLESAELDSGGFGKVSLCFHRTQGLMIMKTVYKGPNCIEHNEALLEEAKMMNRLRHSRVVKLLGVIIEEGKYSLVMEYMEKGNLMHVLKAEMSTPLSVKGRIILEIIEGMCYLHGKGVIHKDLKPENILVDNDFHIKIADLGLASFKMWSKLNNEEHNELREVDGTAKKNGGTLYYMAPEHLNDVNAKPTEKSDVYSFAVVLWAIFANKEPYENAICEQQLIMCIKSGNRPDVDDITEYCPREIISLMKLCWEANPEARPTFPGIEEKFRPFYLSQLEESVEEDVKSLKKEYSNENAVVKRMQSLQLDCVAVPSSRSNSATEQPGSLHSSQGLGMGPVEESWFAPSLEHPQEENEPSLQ

Where [1] appears, read: tight-binding apparent inhibition constant, human RIP1 kinase domain (2-375) 50 nM, 2 hours, read-out: Ki.
Setting [2] is: human RIP1 kinase domain (2-375), 2 hours incubation, Transcreener ADP assay, read-out: RIP1 Ki.
The mark [3] stands for this setting: human RIP1 kinase domain (2-375), Transcreener ADP assay, 2 hours incubation, read-out: RIP1 Ki.
[4] abbreviates: Table 5, apparent Ki (Morrison tight-binding fit), 50 nM RIP1 kinase domain, 2 hours incubation, read-out: Ki.

The structures appear in SMILES notation. pKi: −log10 of the molar value. Where two headings read alike, the source gives them in different places.

As for `CN1C(=O)[C@@H](NC(=O)c2ncc3c(n2)[C@]2(CCOC2)OC3)COc2ccccc21` (racemic) [Example 694, rac-(7S)-N-[rac-(3S)-5-methyl-4-oxo-2,3-dihydro-1,5-benzoxazepin-3-yl]spiro[5H-furo[3,4-d]pyrimidine-7,3′-tetrahydrofuran]-2-carboxamide], the pKi under setting [1] is 6.76.

On to `CN1C(=O)[C@@H](NC(=O)c2nnn3c2CC(c2ccccc2)C3)CCn2nccc21` (stereo partly drawn) [Example 121, N—((S)-4-methyl-5-oxo-5,6,7,8-tetrahydro-4H-pyrazolo[1,5-a][1,3]diazepin-6-yl)-5-phenyl-5,6-dihydro-4H-pyrrolo[1,2-c][1,2,3]triazole-3-carboxamide], for which the pKi under setting [2] was 5.06.

In the case of `O=C(N[C@H]1CCc2cc(F)cc(F)c2NC1=O)c1nc2n(n1)CCO[C@H]2c1ccccc1F` [Example 630, (8S)-8-(2-fluorophenyl)-N-[(3S)-7,9-difluoro-2-oxo-1,3,4,5-tetrahydro-1-benzazepin-3-yl]-6,8-dihydro-5H-[1,2,4]triazolo[5,1-c][1,4]oxazine-2-carboxamide], the pKi under setting [1] is 7.52.

As to `Cc1cc(Cn2cnc(C(=O)NC3CCn4nc(C5CC5)cc4N(C)C3=O)n2)ccn1` (centres unmarked) [Example 242, N-(2-cyclopropyl-4-methyl-5-oxo-5,6,7,8-tetrahydro-4H-pyrazolo[1,5-a][1,3]diazepin-6-yl)-1-((2-methylpyridin-4-yl)methyl)-1H-1,2,4-triazole-3-carboxamide], the pKi under setting [3] is 5.24.

On to `CN1C(=O)[C@@H](NC(=O)c2ncn(Cc3cccc(F)c3F)n2)CCn2nc(C(F)(F)F)cc21` [Example 523, 1-[(2,3-difluorophenyl)methyl]-N-(6S)-4-methyl-5-oxo-2-(trifluoromethyl)-7,8-dihydro-6H-pyrazolo[1,5-a][1,3]diazepin-6-yl-1,2,4-triazole-3-carboxamide], for which the pKi under setting [1] is 7.89.

`CN1C(=O)[C@@H](NC(=O)c2nc3cccc(-c4cc(F)ccc4F)n3n2)CCn2nccc21` [Example 382, (S)-5-(2,5-difluorophenyl)-N-(4-methyl-5-oxo-5,6,7,8-tetrahydro-4H-pyrazolo[1,5-a][1,3]diazepin-6-yl)-[1,2,4]triazolo[1,5-a]pyridine-2-carboxamide]: the pKi under setting [1] is 7.88.

For `CN1C(=O)[C@@H](NC(=O)c2ncn(Cc3ccc(F)c(F)c3)n2)CCn2nc(C3CC3)cc21` [Example 223, (S)—N-(2-cyclopropyl-4-methyl-5-oxo-5,6,7,8-tetrahydro-4H-pyrazolo[1,5-a][1,3]diazepin-6-yl)-1-(3,4-difluorobenzyl)-1H-1,2,4-triazole-3-carboxamide], the pKi under setting [2] is 7.50.

As to `CN1C(=O)[C@@H](NC(=O)c2nc3n(n2)CCC3c2ccccc2)COc2ccccc21` (stereo partly drawn) [Example 571, 7-phenyl-N-[(3S)-5-methyl-4-oxo-2,3-dihydro-1,5-benzoxazepin-3-yl]-6,7-dihydro-5H-pyrrolo[1,2-b][1,2,4]triazole-2-carboxamide], the pKi under setting [1] was 7.64.

Consider `CC[C@@]1(C)OCc2cnc(C(=O)NC3CCn4nc(C5CCOCC5)cc4N(C)C3=O)cc21` (stereo partly drawn) [Example 236, (1R)-1-ethyl-1-methyl-N-(4-methyl-5-oxo-2-(tetrahydro-2H-pyran-4-yl)-5,6,7,8-tetrahydro-4H-pyrazolo[1,5-a][1,3]diazepin-6-yl)-1,3-dihydrofuro[3,4-c]pyridine-6-carboxamide], for which, under setting [3], the pKi is 5.10.

Consider `CC(C)[C@@H]1CCCc2nc(C(=O)N[C@H]3CCc4cc(F)cc(F)c4NC3=O)nn21` (single isomer, unassigned) [Example 436], for which the pKi under setting [1] is 7.69.

As for `Cc1cc2n(n1)CC[C@H](NC(=O)c1ncn(CC3(C)CCC3)n1)C(=O)N2C` [Example 560, 1-[(1-methylcyclobutyl)methyl]-N-(6S)-2,4-dimethyl-5-oxo-7,8-dihydro-6H-pyrazolo[1,5-a][1,3]diazepin-6-yl-1,2,4-triazole-3-carboxamide], the pKi under setting [1] is 6.85.

`CCn1nc(C(=O)N[C@H]2COc3ccccc3N(C)C2=O)c2c1CC[C@@H](C(F)(F)F)C2` (single isomer, unassigned) [Example 184]: the pKi under setting [2] is 6.39.

`CN1C(=O)[C@@H](NC(=O)c2cc3c(cn2)cnn3C(F)(F)F)COc2ccccc21` [Example 356, (S)—N-(5-methyl-4-oxo-2,3,4,5-tetrahydrobenzo[b][1,4]oxazepin-3-yl)-1-(trifluoromethyl)-1H-pyrazolo[4,3-c]pyridine-6-carboxamide]: the pKi under setting [1] was 8.15.

On to `CN1C(=O)[C@@H](NC(=O)c2ncn(Cc3ccc(F)cc3F)n2)CCn2nc(C(F)(F)F)cc21` [Example 529], for which the negative logarithm of the Ki (pKi) under setting [1] was 7.55.

Regarding `CN1C(=O)[C@@H](NC(=O)c2nccc(C3(O)CCC3)n2)COc2ccccc21` [Example 537, 4-(1-hydroxycyclobutyl)-N-[(3S)-5-methyl-4-oxo-2,3-dihydro-1,5-benzoxazepin-3-yl]pyrimidine-2-carboxamide], the pKi under setting [1] was 5.68.

For `Cc1cc2n(n1)CC[C@H](NC(=O)c1ncn(CC3CC3(F)F)n1)C(=O)N2C` (stereo partly drawn) [Example 262, 1-((2,2-difluorocyclopropyl)methyl)-N—((S)-2,4-dimethyl-5-oxo-5,6,7,8-tetrahydro-4H-pyrazolo[1,5-a][1,3]diazepin-6-yl)-1H-1,2,4-triazole-3-carboxamide], the pKi under setting [3] is 6.29.

Turning to `CC(C)[C@H]1CCCc2nc(C(=O)N[C@H]3COc4cc(F)cc(F)c4NC3=O)nn21` (single isomer, unassigned) [Example 717], the pKi under setting [4] was 6.68.

On to `CN1C(=O)[C@@H](NC(=O)c2nc3c(-c4ccccc4)cccn3n2)COc2ccccc21` [Example 568, 8-phenyl-N-[(3S)-5-methyl-4-oxo-2,3-dihydro-1,5-benzoxazepin-3-yl]-[1,2,4]triazolo[1,5-a]pyridine-2-carboxamide], for which, under setting [1], the pKi is 8.09.

As for `CN1C(=O)[C@@H](NC(=O)c2ncn(Cc3ccccc3)n2)CCn2nc(Cn3ccnc3)cc21` [Example 707, (S)-1-benzyl-N-[2-(imidazol-1-ylmethyl)-4-methyl-5-oxo-7,8-dihydro-6H-pyrazolo[1,5-a][1, 3]diazepin-6-yl]-1,2,4-triazole-3-carboxamide], the pKi under setting [4] was 6.28.

With `CN1C(=O)[C@@H](NC(=O)c2nc3n(n2)C(c2ccccc2)CCC3)COc2ccccc21` (single isomer, unassigned) [Example 791], under setting [4], the pKi is 7.89.

Regarding `CC(C)c1cc2n(n1)CC[C@H](NC(=O)c1ncn(Cc3ccccc3)n1)C(=O)N2C` [Example 458, (S)-1-Benzyl-N-(2-isopropyl-4-methyl-5-oxo-5,6,7,8-tetrahydro-4H-pyrazolo[1,5-a][1,3]diazepin-6-yl)-1H-1,2,4-triazole-3-carboxamide], the pKi under setting [1] was 8.00.

In the case of `CN1C(=O)[C@@H](NC(=O)c2noc3c2CC(C(C)(C)C)CC3)COc2ccccc21` (stereo partly drawn) [Example 64, 5-(tert-butyl)-N-((S)-5-methyl-4-oxo-2,3,4,5-tetrahydrobenzo[b][1,4]oxazepin-3-yl)-4,5,6,7-tetrahydrobenzo[d]isoxazole-3-carboxamide], the pKi (Table 1, apparent Ki (Morrison tight-binding fit), 50 nM RIP1 kinase domain, 2 hours incubation, read-out: RIP1 Ki) was 7.13.

Regarding `CN1C(=O)[C@@H](NC(=O)c2n[nH]c3ccc(C4CC4)nc23)COc2ccccc21` [Example 144, 5-cyclopropyl-N-[(3S)-5-methyl-4-oxo-2,3-dihydro-1,5-benzoxazepin-3-yl]-1H-pyrazolo[4,3-b]pyridine-3-carboxamide], the pKi under setting [2] is 6.61.
